Measured values as given in the supplement of paper PMC10307832.

Legend:
Assay in all cases: relative viability (nuclei count vs DMSO), 5 days (fraction); higher = more cells survive
PC-14 = tested on: PC-14
How it was run: (§1)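 One day after seeding in 1536-well plates, lung cancer cell lines were dosed by pin tool. Dosing was either single-drug or a fixed anchor-drug dose plus five library-drug doses (not always all listed) in √10 steps. After 5 days, nuclei were stained in one fix-and-stain step and counted on 4× images, and relative viability is the nuclei count of treated wells over that of vehicle wells, given as the median of duplicate plates.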

EMC-BAC-2 = tested on: EMC-BAC-2
How it was run: as §1

201T = tested on: 201T
How it was run: as §1

NCI-H596 = tested on: NCI-H596
How it was run: as §1

NCI-H322M = tested on: NCI-H322M
How it was run: as §1

NCI-H2087 = tested on: NCI-H2087
How it was run: as §1

H3255 = tested on: H3255
How it was run: as §1

NCI-H2170 = tested on: NCI-H2170
How it was run: as §1

NCI-H2126 = tested on: NCI-H2126
How it was run: as §1

SK-MES-1 = tested on: SK-MES-1
How it was run: as §1

NCI-H441 = tested on: NCI-H441
How it was run: as §1

LXF-289 = tested on: LXF-289
How it was run: as §1

NCI-H1651 = tested on: NCI-H1651
How it was run: as §1

NCI-H2009 = tested on: NCI-H2009
How it was run: as §1

NCI-H647 = tested on: NCI-H647
How it was run: as §1

CAL-12T = tested on: CAL-12T
How it was run: as §1

ChaGo-K-1 = tested on: ChaGo-K-1
How it was run: as §1

NCI-H3122 = tested on: NCI-H3122
How it was run: as §1

NCI-H1755 = tested on: NCI-H1755
How it was run: as §1

HOP-62 = tested on: HOP-62
How it was run: as §1

LK-2 = tested on: LK-2
How it was run: as §1

NCI-H1734 = tested on: NCI-H1734
How it was run: as §1

O=c1[nH]c2ccccc2n1C1CCN(CCCC(c2ccc(F)cc2)c2ccc(F)cc2)CC1 [Pimozide] + CC(=O)Nc1cccc(-n2c(=O)n(C3CC3)c(=O)c3c(Nc4ccc(I)cc4F)n(C)c(=O)c(C)c32)c1 [Trametinib] (partner 0.02 µM)
relative viability (PC-14; first compound 0.253 µM): 0.622
relative viability (PC-14; first compound 0.8 µM): 0.686
relative viability (PC-14; first compound 2.53 µM): 0.607
relative viability (PC-14; first compound 8 µM): 0.62
relative viability (EMC-BAC-2; first compound 0.08 µM): 0.814
relative viability (EMC-BAC-2; first compound 0.253 µM): 0.891
relative viability (EMC-BAC-2; first compound 0.8 µM): 0.792
relative viability (EMC-BAC-2; first compound 2.53 µM): 0.815
relative viability (EMC-BAC-2; first compound 8 µM): 0.802
relative viability (201T; first compound 0.08 µM): 0.717
relative viability (201T; first compound 0.253 µM): 0.726
relative viability (201T; first compound 0.8 µM): 0.7
relative viability (201T; first compound 2.53 µM): 0.732
relative viability (201T; first compound 8 µM): 0.686
relative viability (NCI-H596; first compound 0.08 µM): 0.83
relative viability (NCI-H596; first compound 0.253 µM): 0.763
relative viability (NCI-H596; first compound 0.8 µM): 0.738
relative viability (NCI-H596; first compound 2.53 µM): 0.736
relative viability (NCI-H596; first compound 8 µM): 0.772
relative viability (NCI-H322M; first compound 0.08 µM): 0.402
relative viability (NCI-H322M; first compound 0.253 µM): 0.505
relative viability (NCI-H322M; first compound 0.8 µM): 0.538
relative viability (NCI-H322M; first compound 2.53 µM): 0.546
relative viability (NCI-H322M; first compound 8 µM): 0.54
relative viability (NCI-H2087; first compound 0.08 µM): 0.243
relative viability (NCI-H2087; first compound 0.253 µM): 0.24
relative viability (NCI-H2087; first compound 2.53 µM): 0.179
relative viability (NCI-H2087; first compound 8 µM): 0.205
relative viability (H3255; first compound 0.253 µM): 0.577
relative viability (H3255; first compound 0.8 µM): 0.562
relative viability (H3255; first compound 2.53 µM): 0.564
relative viability (H3255; first compound 8 µM): 0.623
relative viability (NCI-H2170; first compound 0.08 µM): 0.943
relative viability (NCI-H2170; first compound 0.253 µM): 0.874
relative viability (NCI-H2170; first compound 0.8 µM): 0.832
relative viability (NCI-H2170; first compound 2.53 µM): 0.83
relative viability (NCI-H2170; first compound 8 µM): 0.857
relative viability (NCI-H2126; first compound 0.08 µM): 0.589
relative viability (NCI-H2126; first compound 0.253 µM): 0.584
relative viability (NCI-H2126; first compound 0.8 µM): 0.566
relative viability (NCI-H2126; first compound 2.53 µM): 0.592
relative viability (NCI-H2126; first compound 8 µM): 0.533
relative viability (SK-MES-1; first compound 0.08 µM): 0.533
relative viability (SK-MES-1; first compound 0.253 µM): 0.517
relative viability (SK-MES-1; first compound 0.8 µM): 0.508
relative viability (SK-MES-1; first compound 2.53 µM): 0.744
relative viability (SK-MES-1; first compound 8 µM): 0.441
relative viability (NCI-H441; first compound 0.08 µM): 0.425
relative viability (NCI-H441; first compound 0.253 µM): 0.463
relative viability (NCI-H441; first compound 0.8 µM): 0.335
relative viability (NCI-H441; first compound 2.53 µM): 0.565
relative viability (NCI-H441; first compound 8 µM): 0.315
relative viability (LXF-289; first compound 0.08 µM): 0.623
relative viability (LXF-289; first compound 0.253 µM): 0.67
relative viability (LXF-289; first compound 0.8 µM): 0.627
relative viability (LXF-289; first compound 2.53 µM): 0.687
relative viability (LXF-289; first compound 8 µM): 0.674
relative viability (NCI-H1651; first compound 0.08 µM): 0.833
relative viability (NCI-H1651; first compound 0.253 µM): 0.79
relative viability (NCI-H1651; first compound 0.8 µM): 0.829
relative viability (NCI-H1651; first compound 2.53 µM): 0.82
relative viability (NCI-H1651; first compound 8 µM): 0.853
relative viability (NCI-H2009; first compound 0.08 µM): 0.256
relative viability (NCI-H2009; first compound 0.253 µM): 0.276
relative viability (NCI-H2009; first compound 0.8 µM): 0.284
relative viability (NCI-H2009; first compound 2.53 µM): 0.321
relative viability (NCI-H2009; first compound 8 µM): 0.225
relative viability (NCI-H647; first compound 0.08 µM): 0.555
relative viability (NCI-H647; first compound 0.253 µM): 0.491
relative viability (NCI-H647; first compound 0.8 µM): 0.476
relative viability (NCI-H647; first compound 2.53 µM): 0.316
relative viability (NCI-H647; first compound 8 µM): 0.353
relative viability (CAL-12T; first compound 0.08 µM): 0.326
relative viability (CAL-12T; first compound 0.253 µM): 0.291
relative viability (CAL-12T; first compound 0.8 µM): 0.34
relative viability (CAL-12T; first compound 2.53 µM): 0.272
relative viability (CAL-12T; first compound 8 µM): 0.251
relative viability (ChaGo-K-1; first compound 0.08 µM): 0.873
relative viability (ChaGo-K-1; first compound 0.253 µM): 0.871
relative viability (ChaGo-K-1; first compound 0.8 µM): 0.851
relative viability (ChaGo-K-1; first compound 2.53 µM): 0.872
relative viability (ChaGo-K-1; first compound 8 µM): 0.874
relative viability (NCI-H3122; first compound 0.08 µM): 0.239
relative viability (NCI-H3122; first compound 0.253 µM): 0.227
relative viability (NCI-H3122; first compound 0.8 µM): 0.216
relative viability (NCI-H3122; first compound 2.53 µM): 0.252
relative viability (NCI-H3122; first compound 8 µM): 0.188
relative viability (NCI-H1755; first compound 0.08 µM): 0.748
relative viability (NCI-H1755; first compound 0.253 µM): 0.766
relative viability (NCI-H1755; first compound 0.8 µM): 0.736
relative viability (NCI-H1755; first compound 2.53 µM): 0.761
relative viability (NCI-H1755; first compound 8 µM): 0.712
relative viability (HOP-62; first compound 0.08 µM): 0.362
relative viability (HOP-62; first compound 0.253 µM): 0.347
relative viability (HOP-62; first compound 2.53 µM): 0.328
relative viability (HOP-62; first compound 8 µM): 0.389
relative viability (LK-2; first compound 0.08 µM): 0.717
relative viability (LK-2; first compound 0.253 µM): 0.826
relative viability (LK-2; first compound 0.8 µM): 0.749
relative viability (LK-2; first compound 2.53 µM): 0.492
relative viability (LK-2; first compound 8 µM): 0.727
relative viability (NCI-H1734; first compound 0.08 µM): 0.685
relative viability (NCI-H1734; first compound 0.253 µM): 0.697
relative viability (NCI-H1734; first compound 0.8 µM): 0.734
relative viability (NCI-H1734; first compound 2.53 µM): 0.657
relative viability (NCI-H1734; first compound 8 µM): 0.673
